Source: ChEMBL document CHEMBL3045802, “Synthesis and in vitro antitumor activity of new quinoline, pyrimido[4,5-b]quinoline, [1,2,3]triazino[4,5-b]quinoline, and [1,2,4]triazolo[2,3:3,4]pyrimido[6,5-b]quinoline analogs” (2013)

Assays:
Format in all cases: functional
M14 = experiment: Cytotoxicity against Homo sapiens (human) M14 cells assessed as growth inhibition at 10 uM after 48 hr by coulter counter analysis; conditions: M14, 48 h, read-out: GI
UACC-62 = experiment: Cytotoxicity against Homo sapiens (human) UACC62 cells assessed as growth inhibition at 10 uM after 48 hr by coulter counter analysis; conditions: UACC-62, 48 h, read-out: GI
NCI-H460 = experiment: Cytotoxicity against Homo sapiens (human) NCI-H460 cells assessed as growth inhibition at 10 uM after 48 hr by coulter counter analysis; conditions: NCI-H460, 48 h, read-out: GI
MDA-MB-435 = experiment: Cytotoxicity against Homo sapiens (human) MDA-MB-435 cells assessed as growth inhibition at 10 uM after 48 hr by coulter counter analysis; conditions: MDA-MB-435, 48 h, read-out: GI
HOP-62 = experiment: Cytotoxicity against Homo sapiens (human) HOP62 cells assessed as growth inhibition at 10 uM after 48 hr by coulter counter analysis; conditions: HOP-62, 48 h, read-out: GI
SK-MEL-28 = experiment: Cytotoxicity against Homo sapiens (human) SK-MEL-28 cells assessed as growth inhibition at 10 uM after 48 hr by coulter counter analysis; conditions: SK-MEL-28, 48 h, read-out: GI
TK-10 = experiment: Cytotoxicity against Homo sapiens (human) TK10 cells assessed as growth inhibition at 10 uM after 48 hr by coulter counter analysis; conditions: TK-10, 48 h, read-out: GI
SNB-75 = experiment: Cytotoxicity against Homo sapiens (human) SNB75 cells assessed as growth inhibition at 10 uM after 48 hr by coulter counter analysis; conditions: SNB-75, 48 h, read-out: GI
IGROV-1 = experiment: Cytotoxicity against Homo sapiens (human) IGROV1 cells assessed as growth inhibition at 10 uM after 48 hr by coulter counter analysis; conditions: IGROV-1, 48 h, read-out: GI
OVCAR-3 = experiment: Cytotoxicity against Homo sapiens (human) OVCAR3 cells assessed as growth inhibition at 10 uM after 48 hr by coulter counter analysis; conditions: OVCAR-3, 48 h, read-out: GI
DU-145 = experiment: Cytotoxicity against Homo sapiens (human) DU145 cells assessed as growth inhibition at 10 uM after 48 hr by coulter counter analysis; conditions: DU-145, 48 h, read-out: GI
MOLT-4 = experiment: Cytotoxicity against Homo sapiens (human) MOLT4 cells assessed as growth inhibition at 10 uM after 48 hr by coulter counter analysis; conditions: MOLT-4, 48 h, read-out: GI
SNB-19 = experiment: Cytotoxicity against Homo sapiens (human) SNB19 cells assessed as growth inhibition at 10 uM after 48 hr by coulter counter analysis; conditions: SNB-19, 48 h, read-out: GI
MCF7 = experiment: Cytotoxicity against Homo sapiens (human) MCF7 cells assessed as growth inhibition at 10 uM after 48 hr by coulter counter analysis; conditions: MCF7, 48 h, read-out: GI
A549 = experiment: Cytotoxicity against Homo sapiens (human) A549 cells assessed as growth inhibition at 10 uM after 48 hr by coulter counter analysis; conditions: A549, 48 h, read-out: GI
786-0 = experiment: Cytotoxicity against Homo sapiens (human) 786-0 cells assessed as growth inhibition at 10 uM after 48 hr by coulter counter analysis; conditions: 786-0, 48 h, read-out: GI
T47D = experiment: Cytotoxicity against Homo sapiens (human) T47D cells assessed as growth inhibition at 10 uM after 48 hr by coulter counter analysis; conditions: read-out: GI
RPMI-8226 = experiment: Cytotoxicity against Homo sapiens (human) RPMI8226 cells assessed as growth inhibition at 10 uM after 48 hr by coulter counter analysis; conditions: RPMI-8226, 48 h, read-out: GI
SW-620 = experiment: Cytotoxicity against Homo sapiens (human) SW620 cells assessed as growth inhibition at 10 uM after 48 hr by coulter counter analysis; conditions: SW-620, 48 h, read-out: GI
KM12 = experiment: Cytotoxicity against Homo sapiens (human) KM12 cells assessed as growth inhibition at 10 uM after 48 hr by coulter counter analysis; conditions: KM12, 48 h, read-out: GI
SR = experiment: Cytotoxicity against Homo sapiens (human) SR cells assessed as growth inhibition at 10 uM after 48 hr by coulter counter analysis; conditions: read-out: GI
NCI-H522 = experiment: Cytotoxicity against Homo sapiens (human) NCI-H522 cells assessed as growth inhibition at 10 uM after 48 hr by coulter counter analysis; conditions: NCI-H522, 48 h, read-out: GI
NCI-H23 = experiment: Cytotoxicity against Homo sapiens (human) NCI-H23 cells assessed as growth inhibition at 10 uM after 48 hr by coulter counter analysis; conditions: NCI-H23, 48 h, read-out: GI
UO-31 = experiment: Cytotoxicity against Homo sapiens (human) UO31 cells assessed as growth inhibition at 10 uM after 48 hr by coulter counter analysis; conditions: UO-31, 48 h, read-out: GI

| SMILES | inhibition of growth at 10 µM (M14) | inhibition of growth at 10 µM (UACC-62) | inhibition of growth at 10 µM (NCI-H460) | inhibition of growth at 10 µM (MDA-MB-435) | inhibition of growth at 10 µM (HOP-62) | inhibition of growth at 10 µM (SK-MEL-28) | inhibition of growth at 10 µM (TK-10) | inhibition of growth at 10 µM (SNB-75) | inhibition of growth at 10 µM (IGROV-1) | inhibition of growth at 10 µM (OVCAR-3) | inhibition of growth at 10 µM (DU-145) | inhibition of growth at 10 µM (MOLT-4) | inhibition of growth at 10 µM (SNB-19) | inhibition of growth at 10 µM (MCF7) | inhibition of growth at 10 µM (A549) | inhibition of growth at 10 µM (786-0) | inhibition of growth at 10 µM (T47D) | inhibition of growth at 10 µM (RPMI-8226) | inhibition of growth at 10 µM (SW-620) | inhibition of growth at 10 µM (KM12) | other results |
| --- | --- | --- | --- | --- | --- | --- | --- | --- | --- | --- | --- | --- | --- | --- | --- | --- | --- | --- | --- | --- | --- |
| COc1ccc(C2C3=C(CCCC3)Nc3nn[nH]c(=O)c32)cc1OC (stereo not drawn) | < 10% | 14.3% | < 10% | < 10% | 15.7% | < 10% | < 10% | 28.3% | < 10% | < 10% | < 10% | < 10% | 10.7% | < 10% | < 10% | < 10% | 21.1% | < 10% | < 10% | < 10% | inhibition of growth at 10 µM (SR): < 10%; inhibition of growth at 10 µM (NCI-H522): < 10%; inhibition of growth at 10 µM (NCI-H23): < 10%; inhibition of growth at 10 µM (UO-31): 48.6% |
| COc1ccc(C2C3=C(CCCC3)Nc3[nH]c(=S)nc(NC(N)=S)c32)cc1OC (stereo not drawn) | < 10% | < 10% | < 10% | 70.7% | 25.4% | < 10% | < 10% | 20.3% | < 10% | < 10% | < 10% | < 10% | 10.4% | < 10% | < 10% | < 10% | 27.5% | < 10% | < 10% | 21.3% | inhibition of growth at 10 µM (SR): 40.6%; inhibition of growth at 10 µM (NCI-H522): 43.4%; inhibition of growth at 10 µM (NCI-H23): 15.3%; inhibition of growth at 10 µM (UO-31): 43.5% |
| COc1ccc(C2C3=C(CCCC3)Nc3nc(CC#N)[nH]c(=O)c32)cc1OC (stereo not drawn) | < 10% | < 10% | < 10% | < 10% | < 10% | < 10% | < 10% | < 10% | < 10% | < 10% | < 10% | < 10% | < 10% | < 10% | < 10% | < 10% | < 10% | < 10% | < 10% | < 10% | inhibition of growth at 10 µM (SR): < 10%; inhibition of growth at 10 µM (NCI-H522): < 10%; inhibition of growth at 10 µM (NCI-H23): < 10%; inhibition of growth at 10 µM (UO-31): 26.9% |
| O=c1[nH]c(-c2ccccc2)nc2c1C(c1ccc(Cl)cc1)C1=C(CCCC1)N2 (stereo not drawn) | < 10% | < 10% | < 10% | < 10% | < 10% | < 10% | < 10% | 15.5% | < 10% | < 10% | < 10% | 13.6% | < 10% | < 10% | < 10% | < 10% | 15.5% | < 10% | < 10% | < 10% | inhibition of growth at 10 µM (SR): < 10%; inhibition of growth at 10 µM (NCI-H522): 20.2%; inhibition of growth at 10 µM (NCI-H23): < 10%; inhibition of growth at 10 µM (UO-31): 43.3% |
| COc1ccc(C2C3=C(CCCC3)Nc3nc(-c4ccccc4)[nH]c(=O)c32)cc1OC (stereo not drawn) | < 10% | 14.4% | < 10% | < 10% | 15.7% | < 10% | < 10% | 28.4% | < 10% | < 10% | < 10% | < 10% | 10.7% | < 10% | < 10% | < 10% | 21.1% | < 10% | < 10% | < 10% | inhibition of growth at 10 µM (SR): < 10%; inhibition of growth at 10 µM (NCI-H522): 14.5%; inhibition of growth at 10 µM (NCI-H23): < 10%; inhibition of growth at 10 µM (UO-31): 48.6% |
| COc1ccc(-c2nc3c(c(=O)[nH]2)C(c2ccc(OC)c(OC)c2)C2=C(CCCC2)N3)cc1OC (stereo not drawn) | < 10% | < 10% | < 10% | < 10% | 12.3% | < 10% | < 10% | 22.6% | < 10% | < 10% | < 10% | < 10% | < 10% | 34.3% | < 10% | < 10% | 28.3% | 10.8% | < 10% | < 10% | inhibition of growth at 10 µM (SR): 21.4%; inhibition of growth at 10 µM (NCI-H522): 25.8%; inhibition of growth at 10 µM (NCI-H23): < 10%; inhibition of growth at 10 µM (UO-31): 66.3% |
| Clc1ccc(C2C3=C(CCCC3)Nc3ncn4nc(-c5ccccc5)nc4c32)cc1 (stereo not drawn) | < 10% | 13.4% | < 10% | < 10% | 16% | < 10% | < 10% | 10.5% | < 10% | < 10% | < 10% | 11% | < 10% | < 10% | < 10% | < 10% | 14.7% | 12.3% | < 10% | < 10% | inhibition of growth at 10 µM (SR): < 10%; inhibition of growth at 10 µM (NCI-H522): 23.5%; inhibition of growth at 10 µM (NCI-H23): 11.7%; inhibition of growth at 10 µM (UO-31): 40% |
